Laboratory results: patent US20150283147A1, “TREATING POLYCYSTIC KIDNEY DISEASE WITH HSP90 INHIBITORY COMPOUNDS” (SYNTA PHARMACEUTICALS CORP., priority 2012, published 2015)
“Also recorded” adds a separate entry of the source.

Legend:
Her2 = test: Degradation of Her2 in BT-474 cells (Method 1, Western blot); assay type: cell-based, Human; details: 0.5 μM, overnight
Procedure: Human high-Her2 breast carcinoma BT474 (HTB-20), SK-BR-3 (HTB-30) and MCF-7 breast carcinoma (HTB-22) from American Type Culture Collection, VA, USA were grown in Dulbecco's modified Eagle's medium with 4 mM L-glutamine and antibiotics (100 IU/ml penicillin and 100 ug/ml streptomycine;GibcoBRL). To obtain exponential cell growth, cells were trypsinized, counted and seeded at a cell density of 0.5×10^6 cells/ml regularly, every 3 days. All experiments were performed on day 1 after cell passage.
BT-474 cells are treated with 0.5 μM, 2 μM, or 5 μM of 17AAG (a positive control) or 0.5 μM, 2 μM, or 5 μM of a compound of the invention overnight in DMEM medium. After treatment, each cytoplasmic sample is prepared from 1×10^6 cells by incubation of cell lysis buffer (#9803, cell Signaling Technology) on ice for 10 minutes. The resulting supernatant used as the cytosol fractions is dissolved with sample buffer for SDS-PAGE and run on a SDS-PAGE gel, blotted onto a nitrocellulose membrane by using semi-dry transfer. Non-specific binding to nitrocellulose is blocked with 5% skim milk in TBS with 0.5% Tween at room temperature for 1 hour, then probed with anti-Her2/ErB2 mAb (rabbit IgG, #2242, Cell Signaling) and anti-Tubulin (T9026, Sigma) as housekeeping control protein. […]

FLT3 with Hsp90 = details: cited from earlier work
[1] = system: leukemia cells that express either wild type FLT3 or FLT3-ITD mutations; details: cited from earlier work
Kasumi-1 cells = details: Kasumi-1 acute myeloid leukemia cell line with c-Kit mutation; cited from earlier work
Pkd1^−/− mice = test: Cyst formation and kidney growth in conditional Pkd1-/- mice (MRI, kidney weight, cystic index, BUN); assay type: in vivo
Procedure: All experiments involving mice were approved by the Institutional Animal Care and Use Committee of Fox Chase Cancer Center. Conditional Pkd1^−/− mice using the Cre-flox regulatory system for targeted inactivation of the Pkd1 gene in vivo were kindly provided by Gregory Germino (National Institute of Diabetes and Digestive and Kidney Diseases). Pkd1fl/fl;Cre/Esr1+ (referred to as Pkd1^−/−) and control mice (Pkd1fl/fl;Cre/Esr1−; referred to as Control) mice were injected intraperitoneally with tamoxifen (250 mg/kg body weight) on postnatal day P37/P38 (+/−1 day) to induce Pkd1 deletion in the test group.
Compound 111 was formulated in 5% dextrose titrated to pH 4, and administered by tail vein injection in anesthetized mice under sterile conditions using a volume of 10 μl/g body weight. Vehicle treated mice were injected with 5% dextrose only. To investigate the activity of compound 111 on early kidney disease, mice were treated with compound 111 for 5 months, starting 2-3 days after Pkd1 deletion. Treatment began with a weekly schedule up to 4 months of age, including one week off in the 3rd month of age, followed by a bi-weekly schedule from 4 to 6 month of age. 24 hours after the 16th injection, blood samples were collected and the mice were sacrificed to collect organs for histopathological and biochemical analysis. To investigate the activity of compound 111 on Late kidney disease, mice were dosed weekly with compound 111 for 10 weeks starting at 4 months of age. 24 hours after the 11th dose (10 weeks of treatment), blood samples were collected and the mice were sacrificed to collect organs for histopathological and biochemical analysis.
To assess the utility of HSP90 inhibition in ADPKD, Pkd1fl/fl;Cre/Esr1+ (referred to as Pkd1^−/−) and control Pkd1fl/fl;Cre/Esr1− (referred to as control) mice were injected with tamoxifen at 5-6 weeks of age to inactivate the Pkd1 gene. HSP90 was inhibited using compound, a resorcinolic triazole that competitively binds the N-terminal ATP pocket of HSP90. In one cohort of mice (designated Early), mice were dosed from 6 weeks-4 months of age, to assess drug effects on disease initiation (FIG. 1). […] (FIGS. 2-3)
In a second cohort (designated Late), mice were dosed from 4-6 months of age, to assess drug effects on mice with Late cysts, in this case using doses of 50 mg/kg and 100 mg/kg to explore dose range (FIGS. 4-6).
Mice were imaged in a vertical bore MR system at a field strength of 7 Tesla, using a Bruker DRX300 spectrometer, Paravision 3.0.2 software, and a single tuned ^1H cylindrical radiofrequency coil. […]
Using NIH ImageJ, an open source image analysis program, kidney and cyst volume were quantified. […]

| Structure (SMILES) | degradation of Her2 (Her2) | association of FLT3 with Hsp90 (FLT3 with Hsp90) | growth of leukemia cells [1] | apoptosis (Kasumi-1 cells) | blood urea nitrogen (BUN) (Pkd1^−/− mice; Early cohort, 75 mg/kg, blood drawn at euthanasia) | formation of renal cysts and kidney growth (Pkd1^−/− mice; Early cohort, Pkd1−/− mice, 75 mg/kg, tail vein injection, 5 months) | reduction of cyst volume and kidney growth (Pkd1^−/− mice; Late cohort, 50 mg/kg and 100 mg/kg, 1×/week for 10 weeks, tail vein injection) | BUN scores (Pkd1^−/− mice; Late cohort, 100 mg/kg, 10 weeks) |
| --- | --- | --- | --- | --- | --- | --- | --- | --- |
| C=CCNC1=C2C[C@@H](C)C[C@H](OC)[C@H](O)[C@@H](C)/C=C(\C)[C@H](OC(N)=O)[C@@H](OC)/C=C\C=C(/C)C(=O)NC(=CC1=O)C2=O [Compound 17AAG] | partial degradation | disrupt the association of FLT3 with Hsp90 | inhibited | induce apoptosis | – | – | – | – |
| CC(C)c1cc(-c2nnc(C(=O)NCCN3CCOCC3)n2-c2ccc(CN3CCOCC3)cc2)c(O)cc1O [Compound 111, 5-(2,4-dihydroxy-5-isopropylphenyl)-N-(2-morpholinoethyl)-4-(4-(morpholinomethyl)phenyl)-4H-1,2,4-triazole-3-carboxamide] | – | – | – | – | trend towards reduction | very significantly reduced; also recorded: inhibited cyst formation, kidney growth | significant, dose-dependent effect; also recorded: reduced cystic burden | reduced BUN scores to normal levels |
